Results reported in PMC6207338 (Nature medicine, 2018).
Where a chain is given by its changes, count along the chain named. Like-named read-outs stand apart in the source and are kept apart here.

Experiments:
glucose production = settings: i.v. infusion; cited from earlier work
[11C]-metformin microPET = type: in vivo, mouse; settings: acute intravenous [11C]-metformin, WT vs KI mice
mouse FBP1 Y114F = target: T1, mouse FBP1 Y114F (Mus musculus, UniProt Q9QXD6, Y114F); experiment: FBPase coupled assay, mouse FBP1 Y114F; type: biochemical; settings: untagged Y114F, data not shown
T1 sequence (Q9QXD6 1-338 Y114F): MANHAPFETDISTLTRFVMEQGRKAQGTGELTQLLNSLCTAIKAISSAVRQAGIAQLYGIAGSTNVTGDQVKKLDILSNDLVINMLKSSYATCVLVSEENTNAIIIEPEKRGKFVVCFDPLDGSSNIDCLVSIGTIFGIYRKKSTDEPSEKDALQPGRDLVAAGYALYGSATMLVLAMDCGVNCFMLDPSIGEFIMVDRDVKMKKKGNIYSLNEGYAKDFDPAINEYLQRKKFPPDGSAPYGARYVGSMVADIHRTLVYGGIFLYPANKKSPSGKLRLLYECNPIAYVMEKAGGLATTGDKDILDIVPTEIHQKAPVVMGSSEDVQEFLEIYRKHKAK

[1] = test system: FBP1^WT/WT (WT) and FBP1^G27P/G27P (KI) mice; experiment: AICAR tolerance in mice; type: in vivo, mouse; settings: 250 mg.kg^-1 i.p.
[2] = test system: gastrocnemius (GAS) muscle; experiment: Skeletal muscle adenine/Z nucleotides after AICAR; type: in vivo, mouse; settings: following AICAR treatment
AMPK = AMPK activation in tissue by Western blotting / kinase assay; type: in vivo, mouse
mouse FBP1 (WT) = target: T2, mouse FBP1 (WT) (Mus musculus, UniProt Q9QXD6); experiment: FBPase coupled assay, recombinant mouse FBP1 WT; type: biochemical
T2 sequence (Q9QXD6 1-338): T1 sequence (Q9QXD6 1-338 Y114F) with F114Y

rabbit muscle AMPD1 = experiment: AMPD1 assay; type: biochemical; settings: rabbit muscle AMPD1, up to 10 mM
[3] = test system: FBP1^WT/WT (WT) and FBP1^G27P/G27P (KI) mice; experiment: Metformin-euglycemic clamp; type: in vivo, mouse
mouse liver = experiment: Liver adenine/Z nucleotides and metabolites after drug treatment; type: in vivo; settings: 250 mg.kg^-1 p.o.
[4] = random blood samples from diabetic subjects; cited from earlier work
[5] = rats, cited from earlier work
isolated hepatocytes = settings: lactate and pyruvate as sole carbon sources, 1 mM; cited from earlier work
in vivo = settings: mouse, plasma, po, 250 mg.kg^-1
[6] = Metformin assay in plasma and tissues
HFD-fed WT and KI mice = experiment: Metformin in high-fat diet; settings: 250 mg.kg^-1 p.o., 2 h
[7] = end of clamp, 1.875 mg.kg^-1.min^-1 i.v.

Question: Which “effect on glucose production” value (glucose production) does the source give for `N#Cc1c(O)c2c(-c3ccc(-c4ccccc4O)cc3)csc2[nH]c1=O` [A769662] here?
Answer: no effect on glucose production

Question: With `CN([11CH3])C(=N)N=C(N)N` [[^11C]-metformin] as the molecule, how does the “kinetics and total metformin uptake in liver (PET)” value ([11C]-metformin microPET) read?
Answer: comparable between WT and KI mice

Question: With `O=P(O)(O)OC[C@H]1O[C@@](CO)(OP(=O)(O)O)[C@@H](O)[C@@H]1O` [F-2,6-P2, fructose-2,6-bisphosphate] as the molecule, how does the “IC50 for F-2,6-P2” value (mouse FBP1 Y114F) read?
Answer: increased IC50

Question: With `NC(=O)c1ncn([C@@H]2O[C@H](CO)[C@@H](O)[C@H]2O)c1N` [AICAR, 5-aminoimidazole-4-carboxamide-1-β-D-ribofuranoside] as the molecule, how does the blood lactate levels ([1]; KI mice, t = 60 min) read?
Answer: only modestly

Question: And the plasma insulin levels ([1]; WT and KI mice, t = 60 min)?
Answer: no significant change

Question: And the “decrease in blood glucose levels” value ([1]; WT mice, fasted 16 h)?
Answer: ~ 60%

Question: What about the blood lactate levels ([1]; WT mice, t = 60 min) of the same molecule?
Answer: marked increase

Question: And the plasma glucagon levels ([1]; WT mice, t = 60 min)?
Answer: increased

Question: What about the “ZMP concentration in skeletal muscle, fold less compared to liver” value [2] of the same molecule?
Answer: > 50 fold

Question: And the “[ZMP]:[ATP] ratio in skeletal muscle, fold less compared to liver” value [2]?
Answer: > 150 fold

Question: And the “phosphorylation of liver AMPK and ACC” value (AMPK; liver, WT and KI mice, AICAR 250 mg.kg^-1 i.p., 60 min)?
Answer: robustly stimulated

Question: What about the “AMPKα T172 phosphorylation and activity in skeletal muscle” value (AMPK; skeletal muscle, both genotypes, AICAR 250 mg.kg^-1 i.p., 60 min) of the same molecule?
Answer: failed to increase

Question: Which “fold less sensitive, mouse FBP1 compared to rat FBP1” value (mouse FBP1 (WT); recombinant, in vitro) does the source give for `CC(C)Cc1sc(N)nc1-c1ccc(P(=O)(O)O)o1` [MB05032, 2-amino-5-isobutyl-4-[5-phosphono-2-furanyl]thiazole] here?
Answer: ~ 2 fold

Question: What does the source list for `CN(C)C(=N)N=C(N)N` [metformin, N,N-dimethylbiguanide]?
Answer: direct inhibitory effect on FBP1 (mouse FBP1 (WT); purified mouse FBP1, up to 10 mM): does not have a direct inhibitory effect on FBP1 up to 10 mM; inhibition of AMP deaminase 1 (AMPD1) (rabbit muscle AMPD1): Neither does it appear to inhibit; glucose infusion rate (GIR) ([3]; 1.875 mg.kg^-1.min^-1 i.v., WT (and also KI) mice): failed to increase GIR significantly from baseline; suppression of EndoRa, gluconeogenesis and glycogenolysis ([3]; 3.75 mg.kg^-1.min^-1 i.v., KI mice): ablated; glucose infusion rate (GIR) ([3]; 3.75 mg.kg^-1.min^-1 i.v., KI mice, 120 min clamp): only a modest increase in GIR; suppression of endogenous glucose production (EndoRa) ([3]; 3.75 mg.kg^-1.min^-1 i.v., WT mice): ~ 20%; glucose infusion rate (GIR) ([3]; 3.75 mg.kg^-1.min^-1 i.v., WT mice, 120 min clamp): substantial increase in GIR; increase in glucose disposal rate (Rd) ([3]; 3.75 mg.kg^-1.min^-1 i.v., both WT and KI): 40-50%; decrease in hepatic energy charge (mouse liver; both genotypes): ~ 10%; increase in hepatic [AMP]:[ATP] (mouse liver; both genotypes): ~ 2 fold; hepatic cAMP (mouse liver; HFD-fed mice, 2 h): no significant effect; phosphorylation of liver AMPK and ACC (AMPK; mouse, in vivo, po): robust increase; plasma metformin levels, upper end of range [4]: 868 µM; plasma metformin concentration ([5]; 50 mg.kg^-1 intravenously, 30 min after administration): ~ 74 μM; plasma metformin concentration ([5]; 100 mg.kg^-1): 345 µM; plasma metformin concentration ([5]; 250 mg.kg^-1): 1300 µM; reduction in intracellular ATP concentration (isolated hepatocytes): ~ 85%; concentration at 1 h (in vivo): 125 to 150 µM; liver metformin level ([6]; 250 mg.kg^-1 p.o., 1 h, comparable between genotypes): ~ 0.7 μmol.g^-1; liver metformin [6, 7]: ~ 0.8 μmol.g^-1; plasma metformin [6, 7]: ~ 170 μM; decrease of blood glucose (HFD-fed WT and KI mice; HFD-fed KI mice): ~ 10%; reduction of blood glucose levels (HFD-fed WT and KI mice; HFD-fed WT mice): 30-40%
